In US8779156B2, “Analogues for the treatment or prevention of flavivirus infections” (Vertex Pharmaceuticals Incorporated, priority 2010, dated 2014) one finds EC50 data, which are given here for 23 molecules.

Where only a bound is given, the exact number is not on record here.

This assay deals with HCV (1b) replicon, Huh-ET cells. The experiment in a line: Cell-based luciferase reporter HCV (1b) RNA replication assay. The conditions noted are these: Hepatitis C virus, 96 h; HCV 1b replicon, luciferase, 4 days incubation; read-out: EC50_1b. The source says:
Cell-Based Luciferase Reporter HCV (Ib) RNA Replication Assay Cell Culture
Replicon cell lines Huh-5.2 are derived from the Huh-7 hepatocarcinoma cell line are maintained in culture as generally described in Krieger, N; Lohmann, V; Bartenschlager, R. Enhancement of hepatitis C virus RNA replication by cell culture-adaptive mutations. J. Virol. 2001, 75, 4614-4624. The Huh-5.2 cells contain the highly cell culture-adapted replicon I389luc-ubi-neo/NS3-375.1 construct that carries, in addition to the neomycin gene, an integrated copy to the firefly luciferase gene (Krieger, N; Lohmann, V; Bartenschlager, R. Enhancement of hepatitis C virus RNA replication by cell culture-adaptive mutations. J. Virol. 2001, 75, 4614-4624). This cell line allows measurement of HCV RNA replication and translation by measuring luciferase activity. It has been previously shown that the luciferase activity tightly follows the replicon RNA level in these cells (Krieger, N; Lohmann, V; Bartenschlager, R. Enhancement of hepatitis C virus RNA replication by cell culture-adaptive mutations. J. Virol. 2001, 75, 4614-4624). The Huh-ET cell line has the same features as those mentioned for Huh-5.2 cell line, except that ET cells are more robust and contain an adaptative mutation in the HCV NS4B gene instead of NS5A. Both cell lines are maintained in cultures at a sub-confluent level (<85%) as the level of replicon RNA is highest in actively proliferating cells. The culture media used for cell passaging consist of DMEM (Gibco BRL Laboratories, Mississauga, ON, Canada) supplemented with 10% foetal bovine serum with 1% penicilin/streptomycin, 1% glutamine, 1% sodium pyruvate, 1% non-essential amino acids, and 180 μg/ml of G418 final concentration. Cells are incubated at 37° C., in an atmosphere of 5% CO2 and passaged twice a week to maintain sub-confluence.
Approximately 3000 viable Huh-ET cells (100 μl) are plated per well in a white opaque 96-well microtiter plate. The cell culture media used for the assay is the same as described above except that it contains no G418 and no phenol red. After an incubation period of 3-4 hours at 37° C. in a 5% CO2 incubator, compounds (100 μl) are added at various concentrations. Cells are then further incubated for 4 days at 37° C. in a 5% CO2 incubator. Thereafter, the culture media is removed and cells are lysed by the addition of 95 μL of the luciferase buffer (luciferin substrate in buffered detergent). Cell lysates are incubated at room temperature and protected from direct light for at least 10 minutes. Plates are read for luciferase counts using a luminometer (Wallac MicroBeta Trilux, Perkin Elmer™, MA, USA).
Curves are fitted to data points using nonlinear regression analysis, and IC50s are interpolated from the resulting curve using GraphPad Prism software, version 2.0 (GraphPad Software Inc., San Diego, Calif., USA).
(Reporter assays use an easily measured gene product as a stand-in for the process of interest.)

In the case of `COC(=O)N[C@H](C(=O)N1C[C@@H](C)C[C@H]1c1nc(-c2ccc3cc(-c4ccc5[nH]c([C@@H]6C[C@H](C)CN6C(=O)[C@@H](NC(=O)OC)C(C)C)nc5c4)ccc3c2)c[nH]1)C(C)C` [Compound 20], the EC50 was at most 5 nM.
`COC(=O)N[C@H](C(=O)N1C[C@@H](C)C[C@H]1c1nc(-c2ccc3sc(-c4ccc5[nH]c([C@@H]6C[C@H](C)CN6C(=O)[C@@H](NC(=O)OC)C(C)C)nc5c4)cc3c2)c[nH]1)C(C)C` [Compound 33]: the EC50 is at most 5 nM.
Under `COC(=O)N[C@H](C(=O)N1C[C@@H](C)C[C@H]1c1nc(-c2ccc3nc(-c4ccc5[nH]c([C@@H]6C[C@H](C)CN6C(=O)[C@@H](NC(=O)OC)C(C)C)nc5c4)ccc3c2)c[nH]1)C(C)C` [Compound 34] stands at most 5 nM; under `COC(=O)N[C@H](C(=O)N1C[C@H](C)C[C@H]1c1nc(-c2ccc(-c3ccc(-c4ccc5[nH]c([C@@H]6C[C@H](C)CN6C(=O)[C@@H](NC(=O)OC)C(C)C)nc5c4)cc3)cc2)c[nH]1)C(C)C` [Compound 47], at most 5 nM; under `COC(=O)N[C@H](C(=O)N1C[C@@H](C)C[C@H]1c1ncc(-c2csc(-c3ccc(-c4ccc5[nH]c([C@@H]6C[C@H](C)CN6C(=O)[C@@H](NC(=O)OC)C(C)C)nc5c4)cc3)c2)[nH]1)C(C)C` [Compound 14], at most 5 nM.
Under `[2H]c1c([2H])c(-c2ccc3[nH]c([C@@H]4C[C@H](C)CN4C(=O)[C@@H](NC(=O)OC)C(C)C)nc3c2)c([2H])c([2H])c1-c1ccc(-c2c[nH]c([C@@H]3C[C@H](C)CN3C(=O)[C@@H](NC(=O)OC)C(C)C)n2)cc1` [Compound 52] stands at most 5 nM; under `COC(=O)N(C)C(C(=O)N1C[C@@H](C)C[C@H]1c1nc(-c2ccc(C#Cc3ccc4[nH]c([C@@H]5C[C@H](C)CN5C(=O)C(C(C)C)N(C)C(=O)OC)nc4c3)cc2)c[nH]1)C(C)C` (stereo in doubt) [Compound 10, Methyl N-[(1S)-1-[(2S,4S)-2-[4-[4-[2-[2-[(2S,4S)-1-[(2S)-2-[methoxycarbonyl-(methyl)amino]-3-methyl-butanoyl]-4-methyl-pyrrolidin-2-yl]-1H-benzimidazol-5-yl]ethynyl]phenyl]-1H-imidazol-2-yl]-4-methyl-pyrrolidine-1-carbonyl]-2-methyl-propyl]-N-methyl-carbamate], at most 5 nM; under `COC(=O)N[C@H](C(=O)N1C[C@@H](C)C[C@H]1c1ncc(-c2ccc(-c3ccc(-c4ccc5[nH]c([C@@H]6C[C@H](C)CN6C(=O)[C@@H](NC(=O)OC)C(C)C)nc5c4)c(C)c3)cc2C)[nH]1)C(C)C` [Compound 31], at most 5 nM.
In the case of `COC(=O)N[C@H](C(=O)N1C[C@@H](C)C[C@H]1c1nc(-c2ccc(-c3ccc(-c4cc(C)c5[nH]c([C@@H]6C[C@H](C)CN6C(=O)[C@@H](NC(=O)OC)C(C)C)nc5c4)cc3)cc2)c[nH]1)C(C)C` [Compound 28] it was at most 5 nM.
Regarding `COC(=O)N[C@H](C(=O)N1C[C@@H](C)C[C@H]1c1nc(-c2cc3sc(-c4ccc5[nH]c([C@@H]6C[C@H](C)CN6C(=O)[C@@H](NC(=O)OC)C(C)C)nc5c4)cc3s2)c(C)[nH]1)C(C)C` [Compound 19], the EC50 is at most 5 nM.
In the case of `COC(=O)N[C@H](C(=O)N1C[C@@H](C)C[C@H]1c1nc(C#Cc2ccc(-c3ccc4[nH]c([C@@H]5C[C@H](C)CN5C(=O)[C@@H](NC(=O)OC)C(C)C)nc4c3)cc2)c[nH]1)C(C)C` [Compound 12, Methyl N-[(1S)-1-[(2S,4S)-2-[4-[2-[4-[2-[(2S,4S)-1-[(2S)-2-(methoxycarbonylamino)-3-methyl-butanoyl]-4-methyl-pyrrolidin-2-yl]-1H-benzimidazol-5-yl]phenyl]ethynyl]-1H-imidazol-2-yl]-4-methyl-pyrrolidine-1-carbonyl]-2-methyl-propyl]carbamate] it was at most 5 nM; in that of `COC(=O)NC(C(=O)N1C[C@@H](C)C[C@H]1c1nc2cc(C#Cc3cc4sc(-c5c[nH]c([C@@H]6C[C@H](C)CN6C(=O)[C@@H](NC(=O)OC)C(C)C)n5)cc4s3)ccc2[nH]1)C(C)C` (some centres unmarked) [Compound 45], at most 5 nM.
For `COC(=O)N[C@H](C(=O)N1CC(C)(C)C[C@H]1c1nc(-c2ccc(-c3ccc(-c4ccc5[nH]c([C@@H]6CC(C)(C)CN6C(=O)[C@@H](NC(=O)OC)C(C)C)nc5c4)cc3)cc2)c[nH]1)C(C)C` [Compound 23], the EC50 was at most 5 nM.
For the molecule `COC(=O)N[C@H](C(=O)N1C[C@@H](C)C[C@H]1c1nc(C#Cc2cc3sc(-c4ccc5[nH]c([C@@H]6C[C@H](C)CN6C(=O)[C@@H](NC(=O)OC)C(C)C)nc5c4)cc3s2)c[nH]1)C(C)C` [Compound 44], the EC50 is at most 5 nM.
On to `COC(=O)N[C@H](C(=O)N1C[C@@H](C)C[C@H]1c1nc(-c2ccc3cc(-c4ccc5[nH]c([C@@H]6C[C@H](C)CN6C(=O)[C@@H](NC(=O)OC)C(C)C)nc5c4)sc3c2)c[nH]1)C(C)C` [Compound 41], for which the EC50 is at most 5 nM.
In the case of `COC(=O)N[C@H](C(=O)N1C[C@@H](C)C[C@H]1c1nc(-c2ccc(-c3ccc(-c4ccc5[nH]c([C@@H]6C[C@H](C)CN6C(=O)[C@@H](NC(=O)OC)C(C)C)nc5c4)cc3F)cc2)c[nH]1)C(C)C` [Compound 39] it was at most 5 nM; in that of `COC(=O)N(C)[C@H](C(=O)N1C[C@@H](C)C[C@H]1c1ncc(-c2ccc(-c3ccc(-c4ccc5[nH]c([C@@H]6C[C@H](C)CN6C(=O)[C@H](C(C)C)N(C)C(=O)OC)nc5c4)cc3)cc2)[nH]1)C(C)C` [Compound 6, Methyl N-[(1S)-1-[(2S,4S)-2-[4-[4-[4-[2-[(2S,4S)-1-[(2S)-2-[methoxycarbonyl(methyl)amino]-3-methyl-butanoyl]-4-methyl-pyrrolidin-2-yl]-1H-benzimidazol-5-yl]phenyl]phenyl]-1H-imidazol-2-yl]-4-methyl-pyrrolidine-1-carbonyl]-2-methyl-propyl]-N-methyl-carbamate], at most 5 nM; in that of `COC(=O)N[C@H](C(=O)N1C[C@@H](C)C[C@H]1c1ncc(-c2ccc(-c3cc4sc(-c5ccc6nc([C@@H]7C[C@H](C)CN7C(=O)[C@@H](NC(=O)OC)C(C)C)[nH]c6c5)cc4s3)cc2)[nH]1)C(C)C` [Compound 25], at most 5 nM.
On to `O=C(OCc1ccccc1)N1CCC[C@H]1c1ncc(-c2ccc(C#Cc3ccc4[nH]c([C@@H]5CCCN5C(=O)OCc5ccccc5)nc4c3)cc2)[nH]1` [Compound 2], for which the EC50 was 5 to 5000 nM.
Consider `COC(=O)N[C@H](C(=O)N[C@H](C(=O)N1C[C@@H](C)C[C@H]1c1nc(-c2ccc(-c3ccc(-c4ccc5[nH]c([C@@H]6C[C@H](C)CN6C(=O)[C@@H](NC(=O)OC)C(C)C)nc5c4)cc3)cc2)c[nH]1)C(C)C)C(C)C` [Compound 55], for which the EC50 is at most 5 nM.
Under `COC(=O)N[C@H](C(=O)N1C[C@@H](C)C[C@H]1c1nc(-c2ccc(-c3ccc(-c4cc(F)c5[nH]c([C@@H]6C[C@H](C)CN6C(=O)[C@@H](NC(=O)OC)C(C)C)nc5c4)cc3)cc2)c[nH]1)C(C)C` [Compound 32] stands at most 5 nM; under `COC(=O)N[C@H](C(=O)N[C@H](C(=O)N1C[C@@H](C)C[C@H]1c1nc2cc(-c3ccc(-c4ccc(-c5c[nH]c([C@@H]6C[C@H](C)CN6C(=O)[C@@H](NC(=O)OC)C(C)C)n5)cc4)cc3)ccc2[nH]1)C(C)C)C(C)C` [Compound 56], at most 5 nM.
In the case of `COC(=O)N[C@H](C(=O)N1C[C@@H](C)C[C@H]1c1nc(-c2cc3cc(-c4ccc5[nH]c([C@@H]6C[C@H](C)CN6C(=O)[C@@H](NC(=O)OC)C(C)C)nc5c4)sc3s2)c[nH]1)C(C)C` [Compound 43] it was at most 5 nM.
